Consider 8 compounds from PubChem BioAssay (NCI).

Among the test systems are CCRF-CEM leukemia; CAKI-1 renal; UACC-257 melanoma; KM12 colon; MOLT-4 leukemia; HT29 colon; DU-145 prostate; HL-60(TB) leukemia; LOX IMVI melanoma; MDA-MB-435; MCF7 breast; NCI-H226 lung; ACHN renal; EKVX NSCLC; OVCAR-5 ovarian; COLO 205 colon; PC-3 prostate; U251 CNS; SF-268 CNS.
What all share (assay): NCI anticancer screen, dose series, 48 h

Structures are written as SMILES.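 Cells were grown in 96-well plates and exposed to each compound for 48 hours at five concentrations; endpoints were interpolated linearly between bracketing concentrations, or set to the highest concentration if not reached. Definition used: TGI = concentration required for complete inhibition of growth.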

Regarding `Cn1c(-c2ccc(C=O)o2)ccc1-c1ccc(C=O)o1`, the TGI in the assay with CCRF-CEM leukemia is above 100 µM; in the assay with CAKI-1 renal, 36.8 µM; with UACC-257 melanoma it was above 100 µM; with KM12 colon, above 100 µM; in the assay on MOLT-4 leukemia, 80.3 µM; in the assay on HT29 colon, above 100 µM. The TGI was above 100 µM in the assay on DU-145 prostate; 46 µM in the assay with HL-60(TB) leukemia; above 100 µM in the assay with LOX IMVI melanoma; above 100 µM in the assay with MDA-MB-435; above 100 µM in the assay on MCF7 breast; above 100 µM with NCI-H226 lung. Also, the TGI in the assay with ACHN renal, with EKVX NSCLC, with OVCAR-5 ovarian, in the assay with COLO 205 colon, with PC-3 prostate and in the assay with U251 CNS was above 100 µM in each case.

Regarding `O=P1(c2ccccc2)C(c2ccccc2)CCC1c1ccccc1` (centres undefined), the TGI with CCRF-CEM leukemia is above 100 µM; in the assay with CAKI-1 renal, 73.9 µM; in the assay with UACC-257 melanoma, above 100 µM; in the assay on KM12 colon it was above 100 µM; in the assay with MOLT-4 leukemia, above 100 µM; in the assay on DU-145 prostate, above 100 µM. Also, the TGI in the assay on HL-60(TB) leukemia is 43.4 µM; with LOX IMVI melanoma it was above 100 µM; in the assay with MDA-MB-435, above 100 µM; with MCF7 breast, above 100 µM; in the assay on NCI-H226 lung it was above 100 µM; with EKVX NSCLC it was above 100 µM. For the same compound, the TGI in the assay with COLO 205 colon, in the assay on SF-268 CNS and in the assay on PC-3 prostate was above 100 µM in each case.

Consider `CCOC(=O)c1c(N)sc2c1CC(C)CC2` (centres undefined), for which the TGI is above 100 µM in the assay on CAKI-1 renal; 97.3 µM in the assay with UACC-257 melanoma; above 100 µM in the assay with KM12 colon; above 100 µM with MOLT-4 leukemia; 50.3 µM with HT29 colon; above 100 µM with DU-145 prostate. The TGI in the assay with HL-60(TB) leukemia was 23.2 µM; in the assay on LOX IMVI melanoma, above 100 µM; with MDA-MB-435, above 100 µM; in the assay on MCF7 breast, above 100 µM; in the assay on NCI-H226 lung it was 64 µM; in the assay on ACHN renal it was above 100 µM. Also, the TGI with EKVX NSCLC is above 100 µM; in the assay with OVCAR-5 ovarian, above 100 µM; in the assay on COLO 205 colon, 89.5 µM; with SF-268 CNS, above 100 µM; in the assay on PC-3 prostate, above 100 µM; with U251 CNS, above 100 µM.

Take `CCCCSC1=N/C(=C\c2ccccc2O)C(=O)N1`: the TGI in the assay on CAKI-1 renal, with UACC-257 melanoma, in the assay on KM12 colon, with MOLT-4 leukemia, in the assay with HT29 colon and in the assay with DU-145 prostate was above 100 µM throughout. The TGI in the assay with HL-60(TB) leukemia, in the assay with LOX IMVI melanoma, in the assay on MDA-MB-435, in the assay with MCF7 breast, with NCI-H226 lung and in the assay on ACHN renal was above 100 µM in each case. In addition, the TGI was above 100 µM in the assay with EKVX NSCLC; above 100 µM in the assay on OVCAR-5 ovarian; above 100 µM in the assay with COLO 205 colon; above 100 µM in the assay with SF-268 CNS; 92.6 µM with PC-3 prostate; above 100 µM in the assay on U251 CNS.

On to `COc1ccc2[nH]cc(CCNC(=O)[C@H](Cc3ccc(O)cc3)NC(=O)[C@@H](NCC(F)(F)F)C(C)C)c2c1`, for which the TGI with CCRF-CEM leukemia, in the assay with UACC-257 melanoma, in the assay on KM12 colon, in the assay on MOLT-4 leukemia, in the assay on HT29 colon and in the assay with DU-145 prostate was above 100 µM throughout. In addition, the TGI in the assay with HL-60(TB) leukemia is above 100 µM; in the assay with LOX IMVI melanoma it was above 100 µM; in the assay on MDA-MB-435, 83.3 µM; in the assay with MCF7 breast, above 100 µM; with NCI-H226 lung, above 100 µM; in the assay with ACHN renal it was above 100 µM. Also, the TGI in the assay on EKVX NSCLC, with OVCAR-5 ovarian, in the assay with COLO 205 colon, in the assay on PC-3 prostate and in the assay on U251 CNS was above 100 µM throughout.

With `COc1cc(C2C=C(c3ccccc3)Oc3cc4c(cc32)OCO4)cc(OC)c1OC` (centres undefined), the TGI was above 100 µM in the assay on CCRF-CEM leukemia; above 100 µM in the assay on CAKI-1 renal; above 100 µM in the assay with UACC-257 melanoma; above 30.6 µM with KM12 colon; above 100 µM in the assay on MOLT-4 leukemia; above 18.3 µM in the assay with HT29 colon. Also, the TGI in the assay on DU-145 prostate is 4.58 µM; in the assay with HL-60(TB) leukemia it was above 34.3 µM; with LOX IMVI melanoma it was above 54.8 µM; in the assay on MDA-MB-435, above 100 µM; with MCF7 breast, above 100 µM; in the assay on ACHN renal, above 100 µM. For the same compound, the TGI in the assay on EKVX NSCLC is above 100 µM; in the assay on OVCAR-5 ovarian, above 100 µM; in the assay with COLO 205 colon it was above 17.1 µM; in the assay on SF-268 CNS, above 100 µM; in the assay on PC-3 prostate it was above 100 µM; in the assay with U251 CNS it was above 100 µM.

As for `C=C1C(C(=O)OC)[C@H]1C(=O)OC` (some centres undefined), the TGI with CAKI-1 renal, with UACC-257 melanoma, with KM12 colon, in the assay on MOLT-4 leukemia, in the assay with HT29 colon and with DU-145 prostate was above 100 µM throughout. Besides, the TGI with HL-60(TB) leukemia, in the assay on LOX IMVI melanoma, in the assay with MDA-MB-435, in the assay with MCF7 breast, in the assay with NCI-H226 lung and in the assay with ACHN renal was above 100 µM throughout. Further, the TGI in the assay on EKVX NSCLC, in the assay with OVCAR-5 ovarian, in the assay on COLO 205 colon, in the assay on SF-268 CNS, in the assay on PC-3 prostate and in the assay on U251 CNS was above 100 µM throughout.

As to `Nc1nc(Cl)cc(NCC2(CCO)CCC2)n1`, the TGI in the assay on CCRF-CEM leukemia, in the assay with CAKI-1 renal, in the assay on UACC-257 melanoma, in the assay with KM12 colon, with MOLT-4 leukemia and in the assay on HT29 colon was above 100 µM in each case. Also, the TGI in the assay with DU-145 prostate, in the assay on HL-60(TB) leukemia, in the assay with LOX IMVI melanoma, in the assay on MDA-MB-435, in the assay on MCF7 breast and with NCI-H226 lung was above 100 µM in each case. For the same compound, the TGI in the assay with ACHN renal, in the assay on EKVX NSCLC, in the assay on OVCAR-5 ovarian, with PC-3 prostate and with U251 CNS was above 100 µM throughout.
